Measured values from paper PMC4527713, “An IPTG Inducible Conditional Expression System for Mycobacteria” (PLoS ONE, 2015).

Target: T1, RpoB (β subunit of RNA polymerase) (Mycolicibacterium smegmatis, UniProt P60281)
T1 construct: with RNA polymerase (multimeric enzyme)
T1 sequence (P60281 1-1169): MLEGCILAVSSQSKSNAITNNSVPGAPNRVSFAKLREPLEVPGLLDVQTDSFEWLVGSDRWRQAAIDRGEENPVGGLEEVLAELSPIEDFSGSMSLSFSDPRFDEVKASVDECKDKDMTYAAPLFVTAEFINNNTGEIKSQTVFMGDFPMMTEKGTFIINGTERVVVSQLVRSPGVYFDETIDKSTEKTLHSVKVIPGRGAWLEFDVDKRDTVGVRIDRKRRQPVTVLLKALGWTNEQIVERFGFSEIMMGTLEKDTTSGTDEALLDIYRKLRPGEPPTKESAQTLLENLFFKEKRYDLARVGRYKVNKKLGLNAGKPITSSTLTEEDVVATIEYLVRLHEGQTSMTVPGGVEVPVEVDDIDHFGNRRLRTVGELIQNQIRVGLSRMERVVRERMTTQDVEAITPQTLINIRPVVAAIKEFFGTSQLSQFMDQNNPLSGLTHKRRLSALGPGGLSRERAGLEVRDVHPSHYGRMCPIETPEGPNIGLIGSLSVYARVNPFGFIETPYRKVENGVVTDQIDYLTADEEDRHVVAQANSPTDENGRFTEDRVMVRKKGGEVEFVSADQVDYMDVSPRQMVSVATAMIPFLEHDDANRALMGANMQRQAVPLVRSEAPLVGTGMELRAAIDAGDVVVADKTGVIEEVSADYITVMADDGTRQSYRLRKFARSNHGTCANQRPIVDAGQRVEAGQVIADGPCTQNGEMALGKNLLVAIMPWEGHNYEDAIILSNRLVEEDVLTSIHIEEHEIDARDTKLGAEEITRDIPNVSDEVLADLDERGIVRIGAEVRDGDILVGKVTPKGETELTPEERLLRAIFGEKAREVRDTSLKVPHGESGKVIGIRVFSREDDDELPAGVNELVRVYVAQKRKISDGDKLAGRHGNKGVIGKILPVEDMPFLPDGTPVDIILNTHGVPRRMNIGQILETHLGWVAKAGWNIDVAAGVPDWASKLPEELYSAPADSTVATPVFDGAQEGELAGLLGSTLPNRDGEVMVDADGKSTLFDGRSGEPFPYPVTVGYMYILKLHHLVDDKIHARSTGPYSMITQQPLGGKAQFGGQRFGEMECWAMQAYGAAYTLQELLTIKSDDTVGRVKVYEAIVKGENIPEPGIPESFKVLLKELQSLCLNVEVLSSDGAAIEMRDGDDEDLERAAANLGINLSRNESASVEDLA
Test: MIC shift in rpoB knockdown strain ([…]; no shift in inhA knockdown); also reference inhibitor in the screens, IC50 not given
Type: cell-based

CO[C@H]1/C=C/O[C@@]2(C)Oc3c(C)c(O)c4c(O)c(c(/C=N/N5CCN(C)CC5)c(O)c4c3C2=O)NC(=O)/C(C)=C\C=C\[C@H](C)[C@H](O)[C@@H](C)[C@@H](O)[C@@H](C)[C@H](OC(C)=O)[C@@H]1C [rifampicin]
MIC shift in rpoB knockdown strain (8 to 0.5 μg/ml; no shift in inhA knockdown);: modulation in MIC of rifampicin and isoniazid are due to the reduction in the respective target protein levels
